Structures are written as SMILES.

In data set [1] the test system is skin of rats. In words: Topical administration to the skin of rats (irritation). It counts as in vivo. The following applies: concentrations up to 2.5%.
Data set [2] deals with myeloperoxidase (MPO) activity. In words: Acute inflammation of mouse ears, MPO activity. In kind it is in vivo, C57BL/6 mice. The settings on record: 4 d. On the procedure:
[…] mice of the C57BL/6 strain are used. Inflammation is induced on mouse ears with either AtRA, 9-cis RA or TPA by topical application. Inflammation is measured objectively by determination of the activity of myeloperoxidase (MPO) being directly correlated to the infiltration of polymorphonuclear white blood cells and by the determination of mRNA expression of c-jun, a protein implicated in the AP-1 transduction pathway according to known methods, see e.g. P. L. Stanley et al., Skin Pharmacol. 4, 262-271 (1991) (MPO assay), N. Basset-Sequin et al., J. Invest. Dermatol. 94, 418-422 (1990), F. J. Rauscher et al., Cell 52, 471-480 […], P. Sassone-Corn et al., Nature 326, 507-510 (1987), and M. Pfahl, Endocr. Rev. 14, 651-658, 1993, which are incorporated by reference regarding the experimental method.
In the “acute inflammation” test, mice are treated topically (epicutaneously), orally or intraperitoneally, daily for 4 days. In the “semi chronic inflammation” test, mice are treated topically according to the schedules given below. For each experiment, a group of at least 4 mice of both sexes are used in the defined condition, regarding placebo, vehicle control, compound, topical formulation, oral formulation, dosage and concentration. The topical vehicle consists of ethanol/PEG 400/water (3:1:1).
The anti-inflammatory effect of topical RXR antagonist compound 15 is tested by determination of myeloperoxidase activity in % of vehicle treated controls. For induction of inflammation 9-cis RA or TPA are applied topically to the skin, daily for 4 days. The RXR antagonist compound 15 (see Table 1) is administered topically one hour after the application of the inflammation inducing agent. The mice are sacrified 24 hours after the last treatment.

Data set [3] has as its system human skin inflammation induced by topical 9-cis RA. In words: Therapeutic effect on 9-cis RA-induced human skin inflammation, clinical pilot trial. In kind it is in vivo. The procedure:
In the following pilot clinical trial on one healthy volunteer the compounds are applied epicutaneously. 9-cis RA being known for its skin inflammation potential is used in concentrations of 0.1%, 0.3% and 1%. Compound 15 (RXR antagonist) concentration is 1%. The compounds are solved in ethanol/propylene glycol (1:1). 9-cis RA is applied twice daily, 7 days a week, for two consecutive weeks. The site of application is an area of 3×3=9 cm^2 on the abdominal skin. The volume is 0.1 ml per administration. The treatment with compound 15, administered twice daily in a concentration of 1%, is started on day 15 when treatment with 9-cis RA is discontinued. This treatment lasts from day 15 to day 22. For a correct evaluation comparative areas with inflammation induced by 9-cis RA are treated with the vehicle, ethanol/propylene glycol, from day 15 to 22. The post-treatment period lasts until day 28.
The signs and symptoms of skin inflammation are recorded on a 0-4 scale, as described in example 21.
For evaluation of the anti-inflammatory effect of compound 15, the sum of the daily inflammation scores from day 15 to day 28 is determined, as well as the time to complete disappearance of skin inflammation from day 15 on.

For data set [4], the system named is normal skin of mice. In words: Effect on normal, non-inflamed skin of mice. In kind it is in vivo, C57BL/6 mice. On the procedure:
The effect of the RXR antagonist compound 15 on normal skin of mice is investigated. The ears of C57BL/6 mice are treated epicutaneously (topically) for 4 consecutive days with compound 15 in a concentration of 0.05% and 2.5% in acetone/ethanol (1:1, v/v). Comparison with vehicle control. Skin reactions, in particular inflammation, erythema, desquamation, and edema, are observed daily. Myeloperoxidase (MPO) activity is determined. The activity of MPO is considered the most sensitive criterium for the assessment of inflammation of the skin (see above, Examples 6 and 7).

Data set [5] has as its system skin inflammation induced by Candidin or UV-B. In words: Clinical phase I trial, skin inflammation induced by candidin or UV-B irradiation. In kind it is in vivo, human. On the procedure: Four healthy volunteers participate. Inclusion criteria are: Age above 18 years, male or female. They are informed, with written letter of consent. Exclusion criteria are: Preexistant dermatological diseases, known allergy to test agents.
Inflammation inducing agents: Candidin is administered intradermally (see also D. Poffet, Comparaison entre le pouvoir vaso-constricteur d'un corticoide topique et l'inhibition de la dermite à la candidine après intradermorèaction (IDR). Thèse, Universitè de Genève, 1984). UV-B rays are administered by a UV-B lamp.
Inflammation is measured quantitatively. The area of the inflamed skin is measured in cm^2. The thickness of the skin is monitored by Ultrasound at 20 MHz. Erythema is measured by colorimetric determination employing a Minolta CR 20. […]
All determinations are recorded on a scale from 0 to 4: • 0=no reduction • 1=slight reduction (10 to 20%) • 2=moderate reduction (21 to 40%) • 3=marked reduction (41 to 70%) • 4=very marked reduction (71 to 100%) • Compared to vehicle control.

Setting [6] is: 9-cis RA 0.1% day 1-14, followed by vehicle day 15-22.
[7] abbreviates: 9-cis RA 0.3% day 1-14, followed by vehicle day 15-22.
Where [8] appears, read: 9-cis RA 1% day 1-14, followed by vehicle day 15-22.
The mark [9] stands for this setting: 9-cis RA 0.1% day 1-14, followed by compound 15 1% day 15-22.
Setting [10] is: 9-cis RA 0.3% day 1-14, followed by compound 15 1% day 15-22.
Where [11] appears, read: 9-cis RA 1% day 1-14, followed by compound 15 1% day 15-22.

`CC1=C(/C=C/C2=C(/C=C/C(C)=C/C(=O)O)CCCCC2)C(C)(C)CCC1` [Compound 1, (2E,4E)-3-methyl-5-[2-[(E)-2-(2,6,6-trimethyl-1-cyclohexen-1-yl)ethenyl]-1-cyclohepten-1-yl]-2,4-pentadienoic acid]: the “Irritation or inflammation of the skin” value in data set [1] is “does not lead to irritation or inflammation of the skin”.

For `CC1=C(/C=C/C(C)=C\C=C\C(C)=C\C(=O)O)C(C)(C)CCC1` [9-cis RA, 9-cis retinoic acid, reference compound], the “MPO activity (% vehicle treated mice)” value in data set [2] (9-cis RA 0.05% alone, topical) was determined as 647 ± 142 % vehicle treated mice. Moreover, the “Sum of daily inflammation scores from day 15 to disappearance of inflammation” value in data set [3] (setting [6]) was 6.5; in data set [3] (setting [7]), 14; in data set [3] (setting [8]), 14.5. In addition, the results for the “Time in days from day 15 to disappearance of inflammation” value in data set [3] (setting [6]), in data set [3] (setting [7]) and in data set [3] (setting [8]) were 8 days, 13 days and 9 days, respectively.

As to `CCCCOc1c(\C(C)=C/C=C/C(C)=C/C(=O)O)cc(C(C)(C)C)cc1C(C)(C)C` [Compound 15, (2E,4E,6Z)-7-[2-butoxy-3,5-bis(1,1-dimethylethyl)phenyl]-3-methyl-2,4,6-octatrienoic acid], the “Irritation or inflammation of the skin” value in data set [1] is on record as “does not lead to irritation or inflammation of the skin”. The “MPO activity (% vehicle treated mice)” value came out at 236 ± 92 % vehicle treated mice in data set [2] (9-cis RA 0.05% + test compound 0.05% topical), 163 ± 25 % vehicle treated mice in data set [2] (TPA 0.005% + test compound 0.05% topical) and 142 ± 18 % vehicle treated mice in data set [2] (TPA 0.005% + test compound 2.5% topical). For the same compound, the “Clinical signs or symptoms of skin inflammation on normal skin” value in data set [4] (epicutaneous 0.05% and 2.5%, 4 consecutive days) is listed as “does not induce clinical signs or symptoms of a skin inflammation”. Further, the “MPO activity compared to the vehicle control (in words)” value in data set [4] (normal skin, 0.05%) was “no significant change”. Moreover, the “MPO activity, % of that of the vehicle control” value in data set [4] (normal skin, 2.5%) is listed as 57%. For the same compound, the “Sum of daily inflammation scores from day 15 to disappearance of inflammation” value in data set [3] (setting [9]) is on record as 2.5; in data set [3] (setting [10]), 5.5; in data set [3] (setting [11]), 11. Further, the “Time in days from day 15 to disappearance of inflammation” value in data set [3] (setting [9]) is given as 3 days; in data set [3] (setting [10]) it was 6 days; in data set [3] (setting [11]), 8 days. In addition, the “Reduction of the inflammatory reaction compared to vehicle control” value in data set [5] (4 healthy volunteers, topical, candidin or UV-B induced) is reported as “very marked”. The “Anti-inflammatory effect compared with corticosteroids or macrolides” value in data set [5] (topical lotion 1%) was “even superior to that of corticosteroids or macrolides”.
